Measurements as given in patent US12048320B2, “Process for preparing high density, thermostable polysaccharide beads as food additives” (DNA CATCHER, S.L, priority 2019, dated 2024).

What was measured:
[1] = End point (maximum) amount of water miscible solvent in hydrated DB; type: physicochemical; conditions: MV alginate, 1:1.25 alginate:water
Description: Hydrated DB beads were prepared as example 1 using MV alginate. In this case, the water was used to achieve alginate within the hydrated beads to be 44.44% (w/w), which means 125 mL water and 100 g MV alginate (1:1.25 alginate:water ratio). WMS were propylene glycols (PG), glycerol, polyethylene glycol (PEG400) and absolute ethanol. Then, different amounts of volatile and non-volatile water miscible solvents (WMS) were added slowly to the hydrated beads under high shear mixing. The end point (the optimized amount of WMS) was calculated by monitoring physical properties of hydrated beads including size and hardness as described in examples 1 & 2. […] Beads then were cross-linked, washed and dried as described in example 1.
The end point (end point ratio by weight (alginate:water:WMS)) in table 14 means the maximum amount of WMS that allows to obtain acceptable bead hardness (more than 1 kg/cm^2/g beads) and acceptable size range of both wet and dry beads according to the established criteria in table 3 and 4, example 1.

[2] = Limonene loss post baking of pancakes (gas chromatography); type: physicochemical; conditions: pancakes baked at 200° C. for 15 min
Description: The amount of D-limonene was assayed pre and post baking. For this purpose, 10 ml of distilled water was added to 5 g pancakes. Then, 30 ml methanol was added and the mixture was centrifuged at 3000 rpm for 20 min for further assay by gas chromatography. The % of lost limonene post packing as the following equation and expressed as the % of lost limonene post packing (w/w): % of lost limonene post baking (w/w)=(Initial amount added before backing−Residual amount of limonene found in baked pancakes)[…] Results

Row | Total maximum amount of WMS expressed as % w/w [1] [% w/w] | The % of lost limonene one day post packing (w/w), Mean ([2]; one day) | The % of lost limonene one month post packing (w/w), Mean ([2]; one month) | SMILES
1 | 36.61 | – | – | CC(O)CO (centres unmarked) [Propylene glycols (PG), propylene glycols]
2 | 34.78 | – | – | OCC(O)CO [Glycerol, glycerol]
3 | 25.00 | – | – | CCO [Ethanol, absolute ethanol]
4 | – | 89.56 % (w/w) | 93.23 % (w/w) | C=C(C)[C@H]1CC=C(C)CC1 [Free limonene, (4R)-1-methyl-4-(1-methylethenyl)-cyclohexene]
